ChEMBL document CHEMBL3872261, “Coumarins and other fused bicyclic heterocycles with selective tumor-associated carbonic anhydrase isoforms inhibitory activity” (Bioorg Med Chem, 2017)

Target: Carbonic anhydrase 1 (Homo sapiens, UniProt P00915)
Experiment: Inhibition of human recombinant carbonic anhydrase-1 preincubated for 6 hrs by stopped-flow CO2 hydration assay

Chain of Carbonic anhydrase 1 (P00915 whole entry): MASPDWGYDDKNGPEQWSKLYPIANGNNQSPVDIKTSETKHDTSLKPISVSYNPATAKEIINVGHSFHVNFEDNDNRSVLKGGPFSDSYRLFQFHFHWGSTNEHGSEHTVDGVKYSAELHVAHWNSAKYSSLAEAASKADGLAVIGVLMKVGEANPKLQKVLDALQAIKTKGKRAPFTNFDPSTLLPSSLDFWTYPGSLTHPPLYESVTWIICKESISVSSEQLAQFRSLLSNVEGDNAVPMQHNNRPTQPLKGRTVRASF

SMILES	Ki [nM]
CC1=Nc2ccccc2S(=O)(=O)N1	13800
O=C(Nc1ccccc1C(=O)Nc1ccc2c(C(F)(F)F)cc(=O)oc2c1)c1ccc(F)cc1	> 500000
O=c1[nH]c(=O)c2cc([N+](=O)[O-])ccc2[nH]1	> 500000
O=C(Nc1ccccc1C(=O)Nc1ccc2c(C(F)(F)F)cc(=O)oc2c1)c1ccc(Cl)cc1	> 500000
O=S1(=O)NC=Nc2ccccc21	12600
O=C(Nc1ccccc1C(=O)Nc1ccc2c(C(F)(F)F)cc(=O)oc2c1)c1ccccc1	> 500000

More lines, now with the values ahead:

Ki [nM]	SMILES
> 500000	Cc1cc(=O)oc2cc(NC(=O)c3ccccc3NC(=O)c3ccccc3)ccc12
> 500000	Cc1cc(=O)oc2cc(NC(=O)c3ccccc3NC(=O)c3ccc(F)cc3)ccc12
783	O=C1Nc2ccccc2S(=O)(=O)N1
> 500000	Cc1cc(=O)oc2cc(NC(=O)c3ccccc3NC(=O)c3ccc(Cl)cc3)ccc12

Target: Carbonic anhydrase 9 (Homo sapiens, UniProt Q16790)
Experiment: Inhibition of human recombinant carbonic anhydrase-9 preincubated for 6 hrs by stopped-flow CO2 hydration assay

SMILES	Ki [nM]
CC1=Nc2ccccc2S(=O)(=O)N1	349
O=C(Nc1ccccc1C(=O)Nc1ccc2c(C(F)(F)F)cc(=O)oc2c1)c1ccc(F)cc1	20
O=c1[nH]c(=O)c2cc([N+](=O)[O-])ccc2[nH]1	5470
O=C(Nc1ccccc1C(=O)Nc1ccc2c(C(F)(F)F)cc(=O)oc2c1)c1ccc(Cl)cc1	24.5
O=S1(=O)NC=Nc2ccccc21	116
O=C(Nc1ccccc1C(=O)Nc1ccc2c(C(F)(F)F)cc(=O)oc2c1)c1ccccc1	10.9
O=c1[nH]cnc2ccccc12 [QUINAZOLINONE]	15700

Continued, values first:

Ki [nM]	SMILES
21.6	Cc1cc(=O)oc2cc(NC(=O)c3ccccc3NC(=O)c3ccccc3)ccc12
15.1	Cc1cc(=O)oc2cc(NC(=O)c3ccccc3NC(=O)c3ccc(F)cc3)ccc12
87.4	O=C1Nc2ccccc2S(=O)(=O)N1
18.4	Cc1cc(=O)oc2cc(NC(=O)c3ccccc3NC(=O)c3ccc(Cl)cc3)ccc12

Target: Carbonic anhydrase 2 (Homo sapiens, UniProt P00918)
Experiment: Inhibition of human recombinant carbonic anhydrase-2 preincubated for 6 hrs by stopped-flow CO2 hydration assay

SMILES	Ki [nM]
CC1=Nc2ccccc2S(=O)(=O)N1	642
O=C(Nc1ccccc1C(=O)Nc1ccc2c(C(F)(F)F)cc(=O)oc2c1)c1ccc(F)cc1	> 500000
O=c1[nH]c(=O)c2cc([N+](=O)[O-])ccc2[nH]1	> 500000
O=C(Nc1ccccc1C(=O)Nc1ccc2c(C(F)(F)F)cc(=O)oc2c1)c1ccc(Cl)cc1	> 500000
O=S1(=O)NC=Nc2ccccc21	378
O=C(Nc1ccccc1C(=O)Nc1ccc2c(C(F)(F)F)cc(=O)oc2c1)c1ccccc1	> 500000
O=c1[nH]cnc2ccccc12 [QUINAZOLINONE]	> 500000

Now from value to compound:

Ki [nM]	SMILES
> 500000	Cc1cc(=O)oc2cc(NC(=O)c3ccccc3NC(=O)c3ccccc3)ccc12
> 500000	Cc1cc(=O)oc2cc(NC(=O)c3ccccc3NC(=O)c3ccc(F)cc3)ccc12
127	O=C1Nc2ccccc2S(=O)(=O)N1
> 500000	Cc1cc(=O)oc2cc(NC(=O)c3ccccc3NC(=O)c3ccc(Cl)cc3)ccc12

Target: Carbonic anhydrase 12 (Homo sapiens, UniProt O43570)
Sequence (O43570 whole entry): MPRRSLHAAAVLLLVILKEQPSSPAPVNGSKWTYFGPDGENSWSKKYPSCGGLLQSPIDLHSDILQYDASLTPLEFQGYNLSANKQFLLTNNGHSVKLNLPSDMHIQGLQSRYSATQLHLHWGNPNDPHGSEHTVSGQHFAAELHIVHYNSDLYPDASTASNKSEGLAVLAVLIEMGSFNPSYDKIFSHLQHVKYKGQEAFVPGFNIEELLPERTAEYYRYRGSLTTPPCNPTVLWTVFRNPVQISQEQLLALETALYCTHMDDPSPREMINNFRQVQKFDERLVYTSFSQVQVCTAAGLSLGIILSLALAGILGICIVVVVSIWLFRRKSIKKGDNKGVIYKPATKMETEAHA
Experiment: Inhibition of human recombinant carbonic anhydrase-12 preincubated for 6 hrs by stopped-flow CO2 hydration assay

SMILES	Ki [nM]
O=c1[nH]cnc2ccccc12 [QUINAZOLINONE]	10500
